Where a SMILES comes first, the peptide text is derived from it. Bridges are numbered along the chain shown (N, C = ends).
How the values were obtained:
[1] = system: KV4.2/280PK (T280P/D281K double mutant); experiment: Whole-cell patch clamp, KV4.2/280PK (with hKChIP1) in CHO-K1 cells; assay type: cell-based, rat
Procedure: (§1) The cDNA of hKV1.1, hKV1.3, rKV1.4, hKV1.5, rKV2.1, hKV3.1–3.4, mKV4.1, rKV4.2, and rKV4.3 were subcloned in the eukaryotic expression vector pCDNA3.1 or pCMV-blank. Channel mutants were made by a site-directed mutation method. Briefly, a pair of oppositely directed primers with 15 bp overlap at their 5′ ends and the designed mutation site were used to amplify the parental channel plasmid, then the PCR mix was treated with DpnI to remove the template. 10 μL digestion mix was directly used to transform 100 μL DH5α chemical competent cells. The correct mutation made by this procedure was finally confirmed by DNA sequencing. CHO-K1 cells (ATCC® CCL-61™) were grown in DMEM-F12 mixed medium (1:1) supplemented with 10% FBS and maintained in standard conditions (saturated humidity, 37°C, 5% CO2). Channel plasmid was co-transfected with pEGFP-N1 (encodes the green fluoresence protein) into CHO-K1 cells using lipofectamine 2000 following the manufacturer’s instructions. 4–6 h after transfection, cells were seeded onto poly-lysine (PLL) coated coverslips, and 24–36 h later, transfected cells were ready for patch-clamp analysis. It should be note that KV4.2 and its mutants were also co-expressed with hKChIP1 to promote their functional expressions.
(§2) Whole-cell patch clamp recording was performed in an electrophysiology platform equipped with MultiClamp 700B amplifier and Axon Digidata 1550 AD/DA convertor (Axon Instruments, Irvine, CA, United States). Data were acquired using the pClamp software (Axon Instruments, Irvine, CA, United States). All experiments were performed at room temperature. The bath solution contains (in mM): 140 NaCl, 5 KCl, 1 MgCl2, 2 CaCl2, 10 glucose, and 10 HEPES (pH = 7.3). The pipette solution contains (in mM): 140 KCl, 2.5 MgCl2, 11 EGTA, and 10 HEPES (pH = 7.3). Series resistance was kept below 10 MΩ and compensated to 80%. The concentration–response curves were fitted by a Hill logistic equation to estimate the potency (IC50) of the toxin. The whole cell conductance (G) at each depolarizing voltage (V) was determined using the equation: G = I/(V−Vrev), where I and Vrev represents the current amplitude and the reversal potential, respectively. In the present study, Vrev for K^+ current is determined to be −85.61 mV using the Nernst equation. G-V curve was obtained by plotting the normalized G as a function of V and fitted by the Boltzmann equation: y = 1/{1 + exp [(Va−V)/K]}, in which Va, V, and K represents half-maximum activation voltage, test voltage and slope factor, respectively. The steady-state fast inactivation of KV4 channels was measured using a classical two-pulses protocol: cell was held at −120 mV, and a train of conditional voltages (−120–40 mV, in 10 mV increment, 1,000 ms) were applied to induce channel inactivation, followed by a +60 mV test pulse (300 ms) to assess the proportion of non-inactivated channels; the sweep interval was set to 10 s. Currents at the test pulse (I) were normalized to the maximum value (Imax) and plotted as a function of the conditional voltage (V), the curve was fitted by the Boltzmann equation: I/Imax = A + (1−A)/{1 + exp [(V−Vh)/K]}, where Vh is the half-maximum inactivation voltage, A represents the minimum channel availability, and K is the slope factor. Gating currents of KV4.1–4.3 channels were measured as previously reported ([Tilley et al., 2019]). Briefly, the ionic pore currents were abolished by replacing K^+ with NMDG^+ in the pipette solution, and 10 µM Cs^+ was present in the bath solution to occupy the selectivity filter of KV channels to prevent decay of the gating currents during recording.
(§3) Data were presented as MEAN ± SEM, n represents the number of separate experimental cells. Data were analyzed using the software Clampfit 10.5 (Axon Instruments, Irvine, CA, United States), Graphpad Prism 5.01 (GraphPad Software, La Jolla, CA, United States) and Excel 2010 (Microsoft Corporation, Redmond, WA, United States). […]

KV4.2 channel (rKV4.2) = molecular target: T1, KV4.2 channel (rKV4.2) (Rattus norvegicus, UniProt Q63881); experiment: Whole-cell patch clamp, KV4.2 (with hKChIP1) in CHO-K1 cells; assay type: cell-based
T1 construct: expressed in transfected cells; host or cells: CHO-K1 (transient, co-transfected with pEGFP-N1 and hKChIP1)
T1 sequence (Q63881 1-630): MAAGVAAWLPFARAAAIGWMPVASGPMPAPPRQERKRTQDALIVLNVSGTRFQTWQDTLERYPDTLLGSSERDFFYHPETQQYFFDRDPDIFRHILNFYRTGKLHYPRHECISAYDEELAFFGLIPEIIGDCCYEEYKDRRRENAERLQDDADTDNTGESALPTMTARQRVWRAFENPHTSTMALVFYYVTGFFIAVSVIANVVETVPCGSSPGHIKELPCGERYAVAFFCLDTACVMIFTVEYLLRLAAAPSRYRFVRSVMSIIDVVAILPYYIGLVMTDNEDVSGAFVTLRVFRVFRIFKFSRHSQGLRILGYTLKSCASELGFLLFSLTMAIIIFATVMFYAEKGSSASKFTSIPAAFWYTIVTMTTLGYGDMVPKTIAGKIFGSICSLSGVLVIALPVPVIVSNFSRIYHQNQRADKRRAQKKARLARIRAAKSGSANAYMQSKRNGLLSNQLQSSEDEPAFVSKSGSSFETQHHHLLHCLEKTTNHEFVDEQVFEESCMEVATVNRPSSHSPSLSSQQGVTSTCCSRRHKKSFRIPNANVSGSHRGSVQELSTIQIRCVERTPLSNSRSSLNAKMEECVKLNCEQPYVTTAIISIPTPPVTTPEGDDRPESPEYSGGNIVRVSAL
T1 sequence (Q9NZI2 1-227 partner): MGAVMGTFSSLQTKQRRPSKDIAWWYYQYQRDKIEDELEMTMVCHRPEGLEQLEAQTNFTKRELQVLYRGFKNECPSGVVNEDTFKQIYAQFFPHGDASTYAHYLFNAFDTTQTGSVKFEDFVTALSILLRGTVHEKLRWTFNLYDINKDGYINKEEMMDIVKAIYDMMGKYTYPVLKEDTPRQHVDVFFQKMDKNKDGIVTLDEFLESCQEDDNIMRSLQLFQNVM
Procedure: as §1, §2, §3

[2] = system: KV4.1 channel gating currents; experiment: Gating current recording, KV4.1; assay type: cell-based, mouse; conditions: KV4.1, n = 5–6
Procedure: (§4) The cDNA of hKV1.1, hKV1.3, rKV1.4, hKV1.5, rKV2.1, hKV3.1–3.4, mKV4.1, rKV4.2, and rKV4.3 were subcloned in the eukaryotic expression vector pCDNA3.1 or pCMV-blank. Channel mutants were made by a site-directed mutation method. Briefly, a pair of oppositely directed primers with 15 bp overlap at their 5′ ends and the designed mutation site were used to amplify the parental channel plasmid, then the PCR mix was treated with DpnI to remove the template. 10 μL digestion mix was directly used to transform 100 μL DH5α chemical competent cells. The correct mutation made by this procedure was finally confirmed by DNA sequencing. […] 4–6 h after transfection, cells were seeded onto poly-lysine (PLL) coated coverslips, and 24–36 h later, transfected cells were ready for patch-clamp analysis. […]
(§5) Whole-cell patch clamp recording was performed in an electrophysiology platform equipped with MultiClamp 700B amplifier and Axon Digidata 1550 AD/DA convertor (Axon Instruments, Irvine, CA, United States). […] The whole cell conductance (G) at each depolarizing voltage (V) was determined using the equation: G = I/(V−Vrev), where I and Vrev represents the current amplitude and the reversal potential, respectively. In the present study, Vrev for K^+ current is determined to be −85.61 mV using the Nernst equation. […] Gating currents of KV4.1–4.3 channels were measured as previously reported ([Tilley et al., 2019]). […]

KV1.4 channel (rKV1.4) = experiment: Whole-cell patch clamp selectivity, KV1.4; assay type: cell-based, rat; conditions: KV1.4, 10 µM, n = 5
Procedure: as §4, §5

[3] = 10 μM κ-LhTx-1, G-V, mean ± SEM, n = 6
[4] = 10 μM κ-LhTx-1, two-pulse protocol, mean ± SEM, n = 5
[5] = 10 μM κ-LhTx-1, KV4.2, G-V, mean ± SEM, n = 8
[6] = 10 μM κ-LhTx-1, KV4.2, two-pulse protocol, mean ± SEM, n = 6

CC[C@H](C)[C@@H]1NC(=O)[C@H](CCC(N)=O)NC(=O)[C@@H]2CSSC[C@@H]3NC(=O)[C@H](CC(C)C)NC(=O)[C@H](CC(N)=O)NC(=O)[C@H](CCSC)NC(=O)[C@H](Cc4c[nH]c5ccccc45)NC(=O)[C@H](CO)NC(=O)[C@H](C)NC(=O)[C@@H](NC(=O)[C@H](CCC(=O)O)NC(=O)[C@H](CCC(N)=O)NC(=O)[C@H](C)NC(=O)[C@H](CC(=O)O)NC(=O)[C@@H](N)CCC(=O)O)CSSC[C@H](NC(=O)[C@H](CSSC[C@@H](C(=O)N[C@@H](CCCCN)C(=O)N[C@@H](Cc4ccc(O)cc4)C(=O)N[C@@H](CCCCN)C(=O)N[C@@H](CC(C)C)C(N)=O)NC(=O)[C@H](Cc4c[nH]c5ccccc45)NC1=O)NC(=O)[C@H](CCCCN)NC(=O)[C@H](CCCCN)NC(=O)[C@H](CCC(=O)O)NC(=O)CNC3=O)C(=O)N[C@@H](CCC(=O)O)C(=O)NCC(=O)N[C@@H](Cc1ccc(O)cc1)C(=O)N[C@@H](C(C)C)C(=O)N2 [κ-LhTx-1] (H-EDAQECASWMNLCGEKKCCEGYVCQIWCKYKL-NH2; disulfide 6-19, 13-24, 18-28 (inferred); N-terminus and C-terminus assumed)
∆Va and inhi%(min) vs KV4.1 ([1]; 10 μM): not significantly different from those in KV4.1
Va (steady-state activation) [1, 3]: 82.17 ± 1.67 mV
k, slope factor (steady-state activation) [1, 3]: 13.22 ± 1.15 mV
Vh (steady-state inactivation) [1, 4]: -9.93 ± 2.94 mV
k, slope factor (steady-state inactivation) [1, 4]: 11.46 ± 1.10 mV
∆Va (steady-state activation) ([1]; Va shift by 10 μM κ-LhTx-1 vs control, mean ± SEM): 102.8 ± 3.22 mV
∆Vh (steady-state inactivation) ([1]; Vh shift by 10 μM κ-LhTx-1 vs control, mean ± SEM): 43.66 ± 3.77 mV
Va (steady-state activation) (KV4.2 channel (rKV4.2); [5]): 30.24 ± 1.82 mV
k, slope factor (steady-state activation) (KV4.2 channel (rKV4.2); [5]): 21.99 ± 0.42 mV
Vh (steady-state inactivation) (KV4.2 channel (rKV4.2); [6]): -69.67 ± 1.87 mV
k, slope factor (steady-state inactivation) (KV4.2 channel (rKV4.2); [6]): 7.22 ± 0.26 mV
reversibility of inhibition (KV4.2 channel (rKV4.2); KV4.2): in a reversible manner
voltage-dependence of inhibition (KV4.2 channel (rKV4.2); KV4.2, 10 µM, inhibition ratio at each depolarizing voltage, n = 5–8): decreased quickly with the increment of the depolarizing voltage
I-V relationship shift (KV4.2 channel (rKV4.2); KV4.2, 10 µM, n = 5–8): only a small shift
current inhibition at Va (KV4.2 channel (rKV4.2); KV4.2 at Va depolarizing voltage): almost fully inhibited
∆Va (steady-state activation) (KV4.2 channel (rKV4.2); Va shift by 10 μM κ-LhTx-1 vs control, KV4.2, mean ± SEM): 39.52 ± 2.55 mV
gating current inhibition [2]: inhibited the gating currents
effect on currents (KV1.4 channel (rKV1.4)): did not remarkably affect the currents

From publication PMC8222713, “Variation of Two S3b Residues in KV4.1–4.3 Channels Underlies Their Different Modulations by Spider Toxin κ-LhTx-1” (Frontiers in Pharmacology, 2021)
